The record followed here is the supplement of paper PMC10331698.

Common to all, as to test: level (log10 ratio to DMSO vehicle control); higher = higher biomarker level / cell amount than vehicle control
What all share (conditions): in DMSO

Compound in test [1]: CC(C)(C)C(=O)CC(=O)C(F)(F)C(F)(F)C(F)(F)F [(Heptafluorobutanoyl)pivaloylmethane]
On the procedure:
(§1)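 BioMAP Diversity Plus panel of 12 human primary cell co-culture systems (3C, 4H, LPS, SAg, BT, BF4T, BE3C, CASM3C, HDF3CGF, KF3CT, MyoF, Mphg). Compounds were added 1 h before stimulation and left for 24 h (MyoF 48 h; BT 72 h for soluble read-outs or 6 d for IgG). Biomarkers were read by ELISA, cytotoxicity by SRB, PBMC viability and proliferation by Alamar Blue. Each well value was divided by the mean of 8 DMSO control wells on the same plate and log10 transformed; duplicate blinded samples were tested at 4 concentrations.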

Compound in a further test: CCCCCCCCC(F)(F)C(F)(F)C(F)(F)C(F)(F)C(F)(F)C(F)(F)F [1-(Perfluorohexyl)octane]
The protocol:
as §1

Compound in test [2]: FC(F)(F)C(F)(F)C(F)(F)C(F)(F)C(F)(F)C(F)(F)C(F)(F)CCI [1-Iodo-1H,1H,2H,2H-perfluorononane]
The protocol: as §1

Compound in the next test: N=C(N)C(F)(F)C(F)(F)C(F)(F)C(F)(F)C(F)(F)C(F)(F)C(F)(F)F [Perfluorooctanamidine]
On the procedure: as §1

Compound in the next test: NC(=O)C(F)(F)C(F)(F)C(F)(F)C(F)(F)C(F)(F)C(F)(F)C(F)(F)F [Perfluorooctanamide]
The protocol: as §1

Compound in the next test: O=C(O)C(F)(F)C(F)(F)C(F)(F)C(=O)O [Hexafluoroglutaric acid]
On the procedure: as §1

Compound in test [3]: O=S(=O)(O)C(F)(F)C(F)(F)C(F)(F)C(F)(F)C(F)(F)C(F)(F)C(F)(F)C(F)(F)F [Perfluorooctanesulfonic acid]
The protocol:
as §1

± gives the standard deviation of the averaged measurements.

With lMphg:CD40, the “level (log10)” value is -0.0075 ± 0.0021 in test [1] (6700 nM); 0.004 ± 0.034 in test [1] (20000 nM); -0.017 ± 0.0014 in test [1] (60000 nM); -0.0185 ± 0.011 with 1-(Perfluorohexyl)octane (6700 nM); -0.023 ± 0.021 with 1-(Perfluorohexyl)octane (20000 nM); -0.0065 ± 0.00071 in test [2] (6700 nM). Further, the “level (log10)” value in test [2] (20000 nM) is -0.0225 ± 0.028; in the test with Perfluorooctanamidine (6700 nM), -0.016 ± 0.023; with Perfluorooctanamidine (20000 nM), -0.0145 ± 0.005; with Perfluorooctanamidine (60000 nM), -0.046; with Perfluorooctanamide (6700 nM), -0.0285 ± 0.018; in the test with Perfluorooctanamide (20000 nM) it was -0.007 ± 0.014. In addition, the “level (log10)” value was 0.045 ± 0.0085 in the test with Perfluorooctanamide (60000 nM); -0.0015 ± 0.012 in the test with Hexafluoroglutaric acid (6700 nM); -0.013 ± 0.0014 in the test with Hexafluoroglutaric acid (20000 nM); -0.066 ± 0.061 with Hexafluoroglutaric acid (60000 nM); -0.027 ± 0.013 in test [3] (6700 nM); -0.0025 ± 0.005 in test [3] (20000 nM). Further, the “level (log10)” value in test [3] (60000 nM) was found to be 0.02 ± 0.0014.

Consider lMphg:CD62E/E-Selectin, for which the “level (log10)” value in test [1] (6700 nM) is -0.017; in test [1] (20000 nM), -0.0085 ± 0.012; in test [1] (60000 nM) it was -0.0525 ± 0.011; with 1-(Perfluorohexyl)octane (6700 nM) it was 0.0205 ± 0.012; in the test with 1-(Perfluorohexyl)octane (20000 nM), -0.0145 ± 0.03; in test [2] (6700 nM) it was 0.016 ± 0.02. The “level (log10)” value in test [2] (20000 nM) was 0.001 ± 0.0099; with Perfluorooctanamidine (6700 nM), 0.0065 ± 0.042; with Perfluorooctanamidine (20000 nM), 0.0655 ± 0.015; in the test with Perfluorooctanamidine (60000 nM) it was 0.049; with Perfluorooctanamide (6700 nM), 0.022 ± 0.048; with Perfluorooctanamide (20000 nM), 0.0285 ± 0.043. The “level (log10)” value is -0.0165 ± 0.07 with Perfluorooctanamide (60000 nM); -0.0065 ± 0.026 with Hexafluoroglutaric acid (6700 nM); 0.001 ± 0.02 with Hexafluoroglutaric acid (20000 nM); -0.0165 ± 0.043 with Hexafluoroglutaric acid (60000 nM); -0.0015 ± 0.023 in test [3] (6700 nM); 0.0385 ± 0.013 in test [3] (20000 nM). Also, the “level (log10)” value in test [3] (60000 nM) was 0.186 ± 0.029.

Regarding lMphg:CD69, the “level (log10)” value in test [1] (6700 nM) was -0.0145 ± 0.0021; in test [1] (20000 nM) it was -0.0025 ± 0.0078; in test [1] (60000 nM), 0.051 ± 0.011; with 1-(Perfluorohexyl)octane (6700 nM), -0.0265 ± 0.0078; with 1-(Perfluorohexyl)octane (20000 nM), -0.0345 ± 0.015; in test [2] (6700 nM), -0.0025 ± 0.023. In addition, the “level (log10)” value in test [2] (20000 nM) is -0.053 ± 0.076; in the test with Perfluorooctanamidine (6700 nM) it was -0.048 ± 0.0028; with Perfluorooctanamidine (20000 nM), -0.052 ± 0.0085; with Perfluorooctanamidine (60000 nM), 0.029; with Perfluorooctanamide (6700 nM), 0.0175 ± 0.018; with Perfluorooctanamide (20000 nM) it was -0.005 ± 0.025. Besides, the “level (log10)” value with Perfluorooctanamide (60000 nM) was -0.0825 ± 0.074; with Hexafluoroglutaric acid (6700 nM), -0.037 ± 0.028; with Hexafluoroglutaric acid (20000 nM), -0.0325 ± 0.0021; with Hexafluoroglutaric acid (60000 nM), -0.0525 ± 0.015; in test [3] (6700 nM), -0.046; in test [3] (20000 nM), -0.0585 ± 0.029. Also, in test [3] (60000 nM), the “level (log10)” value was -0.102 ± 0.091.

With lMphg:CD106/VCAM-1, the “level (log10)” value in test [1] (6700 nM) was 0.0115 ± 0.037; in test [1] (20000 nM), 0.001 ± 0.014; in test [1] (60000 nM), -0.009 ± 0.0057; in the test with 1-(Perfluorohexyl)octane (6700 nM) it was -0.0105 ± 0.012; with 1-(Perfluorohexyl)octane (20000 nM), -0.035 ± 0.017; in test [2] (6700 nM), -0.009 ± 0.04. In addition, the “level (log10)” value in test [2] (20000 nM) is -0.039 ± 0.075; with Perfluorooctanamidine (6700 nM), -0.006 ± 0.0028; with Perfluorooctanamidine (20000 nM), -0.008 ± 0.0057; in the test with Perfluorooctanamidine (60000 nM), -0.08; with Perfluorooctanamide (6700 nM) it was -0.021 ± 0.0071; with Perfluorooctanamide (20000 nM), 0.006 ± 0.0071. The “level (log10)” value was 0.0435 ± 0.012 with Perfluorooctanamide (60000 nM); 0.0045 ± 0.011 with Hexafluoroglutaric acid (6700 nM); -0.005 ± 0.0057 in the test with Hexafluoroglutaric acid (20000 nM); -0.0255 ± 0.00071 with Hexafluoroglutaric acid (60000 nM); -0.009 ± 0.0099 in test [3] (6700 nM); -0.005 ± 0.013 in test [3] (20000 nM). Further, in test [3] (60000 nM), the “level (log10)” value is -0.058 ± 0.04.

For the test system lMphg:CXCL8/IL-8, the “level (log10)” value was 0.002 ± 0.02 in test [1] (6700 nM); 0.006 ± 0.034 in test [1] (20000 nM); 0.014 ± 0.064 in test [1] (60000 nM); -0.0215 ± 0.0078 with 1-(Perfluorohexyl)octane (6700 nM); 0.022 ± 0.02 with 1-(Perfluorohexyl)octane (20000 nM); 0.007 ± 0.013 in test [2] (6700 nM). Further, the “level (log10)” value came to 0.0695 ± 0.0078 in test [2] (20000 nM); 0.011 in the test with Perfluorooctanamidine (6700 nM); 0.0425 ± 0.019 with Perfluorooctanamidine (20000 nM); 0.175 with Perfluorooctanamidine (60000 nM); 0.013 ± 0.028 with Perfluorooctanamide (6700 nM); 0.0285 ± 0.012 in the test with Perfluorooctanamide (20000 nM). The “level (log10)” value is 0.031 ± 0.042 in the test with Perfluorooctanamide (60000 nM); 0.014 ± 0.0042 with Hexafluoroglutaric acid (6700 nM); 0.044 ± 0.072 with Hexafluoroglutaric acid (20000 nM); -0.0185 ± 0.0021 with Hexafluoroglutaric acid (60000 nM); -0.0385 ± 0.018 in test [3] (6700 nM); -0.003 ± 0.025 in test [3] (20000 nM). In addition, the “level (log10)” value in test [3] (60000 nM) came out at 0.0585 ± 0.1.
